The values below come from PubChem BioAssay (NCI).

Molecules are shown by their SMILES.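 Each compound was tested at five concentrations against cells in 96-well plates for 48 hours. GI50 is the concentration that inhibits growth by half. At the TGI there is no net growth.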

Among the test systems are MCF7 breast; COLO 205 colon; U251 CNS; UACC-257 melanoma; PC-3 prostate; BT-549 breast; NCI-H23 lung; OVCAR-3 ovarian; NCI-H226 lung; SNB-75 CNS.
Holding throughout (test): NCI anticancer screen, dose series, 48 h

For `COc1ccc(-n2c3c(c4c(CN(C)C)c(O)ccc42)C(=O)c2ccccc2C3=O)cc1`, the TGI with MCF7 breast is 24.9 µM; with COLO 205 colon it was 20.7 µM; with U251 CNS, more than 100 µM; in the experiment on UACC-257 melanoma, 41.2 µM; in the experiment on PC-3 prostate, 37.1 µM; in the experiment on BT-549 breast, 35.9 µM. For the same compound, the TGI is 29.6 µM in the experiment with NCI-H23 lung and 30.8 µM in the experiment with OVCAR-3 ovarian.

Take `CC(C)(C)OC(=O)Nc1cc(-c2ccccc2)co1`: the TGI in the experiment on MCF7 breast, with COLO 205 colon, in the experiment on U251 CNS, in the experiment on UACC-257 melanoma, in the experiment with PC-3 prostate and in the experiment on BT-549 breast was more than 100 µM throughout. The TGI in the experiment with NCI-H23 lung, with NCI-H226 lung and in the experiment with OVCAR-3 ovarian was more than 100 µM throughout.

Turning to `COc1ccc(CCCC(=O)O)c(C)c1`, the TGI was 60.8 µM in the experiment with U251 CNS; more than 100 µM in the experiment with UACC-257 melanoma; more than 100 µM with PC-3 prostate; more than 100 µM with BT-549 breast; more than 100 µM in the experiment on NCI-H23 lung; 91.1 µM with NCI-H226 lung. This compound registered a TGI with OVCAR-3 ovarian of 97.5 µM.

For the compound `Nc1nc(N)c2nc(-c3ccco3)cnc2n1`, the TGI with COLO 205 colon was more than 100 µM; in the experiment on U251 CNS, more than 100 µM; in the experiment on UACC-257 melanoma, more than 100 µM; in the experiment with NCI-H23 lung it was more than 100 µM; in the experiment with NCI-H226 lung it was more than 100 µM; in the experiment with SNB-75 CNS, 80 µM. This compound had a TGI in the experiment on OVCAR-3 ovarian of more than 100 µM.

Regarding `O=C1CCCCC[C@]12SC[C@H]1CON=C12`, the TGI with MCF7 breast is 82.4 µM; with COLO 205 colon, more than 100 µM; with U251 CNS it was 42.2 µM; with UACC-257 melanoma, more than 100 µM; in the experiment with BT-549 breast it was more than 100 µM; in the experiment on NCI-H23 lung, more than 100 µM. Moreover, the TGI with NCI-H226 lung and with OVCAR-3 ovarian was more than 100 µM throughout.

On to `CCOC(=O)c1c(C)[nH]c(/C=C2\N=C(c3ccc[nH]3)C=C2OC)c1C`, for which the GI50 was 0.0469 µM in the experiment with MCF7 breast; 0.052 µM in the experiment on U251 CNS; 0.0402 µM in the experiment on UACC-257 melanoma; 0.0442 µM with PC-3 prostate; 0.041 µM in the experiment on BT-549 breast; 0.235 µM in the experiment with NCI-H23 lung. For the same compound, in the experiment on OVCAR-3 ovarian, the GI50 is 0.0152 µM. Besides, the TGI stood at 1.3 µM in the experiment on MCF7 breast; 1.59 µM with U251 CNS; 1.46 µM in the experiment with UACC-257 melanoma; 2.45 µM in the experiment on PC-3 prostate; 1.48 µM in the experiment on BT-549 breast; 2.03 µM in the experiment on NCI-H23 lung. The compound also returned a TGI with OVCAR-3 ovarian of 0.299 µM.

For `Cn1c2ccccc2n2c(=O)c3cccnc3c(C#N)c12`, the TGI in the experiment with COLO 205 colon was more than 100 µM; with U251 CNS it was more than 100 µM; in the experiment with UACC-257 melanoma, more than 100 µM; in the experiment with BT-549 breast, more than 100 µM; with NCI-H23 lung, more than 100 µM; in the experiment with NCI-H226 lung, 30.1 µM. In addition, the TGI in the experiment with SNB-75 CNS and in the experiment on OVCAR-3 ovarian was more than 100 µM each time.

Turning to `CC(=N/NC(=S)N1CCCCC1)/C(C)=N\NC(=S)N1CCCCC1`, the TGI stood at 3.62 µM with COLO 205 colon; 4.09 µM in the experiment with UACC-257 melanoma; 3.38 µM in the experiment on BT-549 breast; 4.82 µM with NCI-H23 lung; 3 µM in the experiment on NCI-H226 lung; 3.14 µM in the experiment on SNB-75 CNS. In the experiment on OVCAR-3 ovarian, this compound showed a TGI of 3.39 µM.

For `N#CC(N=Nc1ccccc1)c1nc2ccccc2o1` (centres undefined), the TGI was more than 100 µM in the experiment on MCF7 breast; 68.7 µM in the experiment on COLO 205 colon; 59.5 µM with U251 CNS; more than 100 µM in the experiment with UACC-257 melanoma; more than 100 µM in the experiment with PC-3 prostate; 46 µM in the experiment on BT-549 breast. For the same compound, the TGI was 43.9 µM with NCI-H23 lung, more than 100 µM in the experiment with NCI-H226 lung and 92.7 µM in the experiment on OVCAR-3 ovarian.

Regarding `CCN(CC)CCSc1nc2c(c(=N)n1-c1ccccc1)c(=S)n(-c1ccccc1)c(=S)n2-c1ccccc1`, the TGI in the experiment with COLO 205 colon was determined as 3.51 µM; in the experiment with U251 CNS it was 6.4 µM; with UACC-257 melanoma it was 3.15 µM; with PC-3 prostate, 3.32 µM; in the experiment on BT-549 breast it was 5.98 µM; in the experiment on NCI-H23 lung it was 10.8 µM. The TGI is 50.4 µM in the experiment with NCI-H226 lung, 5.52 µM in the experiment on SNB-75 CNS and 3.07 µM with OVCAR-3 ovarian.

On to `COc1ccc(CCc2ccc(O)c(C(=O)O)c2)cc1OC`, for which the TGI in the experiment with MCF7 breast, in the experiment with COLO 205 colon, in the experiment with U251 CNS, in the experiment with UACC-257 melanoma, with PC-3 prostate and in the experiment with NCI-H23 lung was more than 100 µM in each case. Further, the TGI in the experiment on NCI-H226 lung, with SNB-75 CNS and in the experiment on OVCAR-3 ovarian was more than 100 µM throughout.

Consider `COc1cc2cc(C(=O)N3CC(CCl)c4c3cc(N(C)C)c3ccccc43)[nH]c2c(OC)c1OC` (centres undefined), for which the TGI in the experiment with U251 CNS came out at 4.66 µM; in the experiment on PC-3 prostate, 0.18 µM; in the experiment with BT-549 breast, 5.91 µM; in the experiment with NCI-H23 lung, 0.0127 µM; in the experiment on SNB-75 CNS, 0.0252 µM; in the experiment on OVCAR-3 ovarian it was 0.0377 µM.

As for `Cc1ccc(Nc2nc(=O)[nH]c(=O)[nH]2)cc1N=[N+]=[N-]`, the TGI in the experiment on MCF7 breast, in the experiment with COLO 205 colon, in the experiment with UACC-257 melanoma, in the experiment on BT-549 breast, with NCI-H23 lung and in the experiment with NCI-H226 lung was more than 100 µM throughout. The TGI with SNB-75 CNS and with OVCAR-3 ovarian was more than 100 µM throughout.

In the case of `COc1ccccc1N=N/C(=N/NC(=O)c1ccc(C)cc1)c1ccc(N(CCC#N)CCC#N)cc1OC`, the TGI in the experiment with MCF7 breast is 63.1 µM; in the experiment on COLO 205 colon, 31.1 µM; in the experiment with U251 CNS, more than 100 µM; in the experiment with UACC-257 melanoma, more than 100 µM; in the experiment with PC-3 prostate it was 71.2 µM; in the experiment with BT-549 breast, 97.4 µM. The TGI with NCI-H23 lung, in the experiment on NCI-H226 lung and with OVCAR-3 ovarian was more than 100 µM each time.

As to `O=C(NCCCCNCCCNC(=O)c1cc(-c2ccccc2)nc2ccccc12)c1cc(-c2ccccc2)nc2ccccc12`, the TGI with MCF7 breast worked out at 3.07 µM; with U251 CNS it was 3.32 µM; in the experiment on UACC-257 melanoma, 3.36 µM; in the experiment on PC-3 prostate it was 2.98 µM; in the experiment with BT-549 breast it was 37.5 µM; with NCI-H23 lung it was 4.02 µM. Moreover, the TGI was found to be 3.26 µM with NCI-H226 lung and 2.99 µM with OVCAR-3 ovarian.

As for `O=C1OC[C@@H]2Cc3c([nH]c4ccccc34)[C@@H](c3cc(O)c(O)c(O)c3)N12`, the TGI was 84.1 µM in the experiment with MCF7 breast; 42.6 µM with COLO 205 colon; 59.8 µM in the experiment on U251 CNS; 9.73 µM with UACC-257 melanoma; more than 100 µM in the experiment with PC-3 prostate; 98.6 µM with NCI-H23 lung. The TGI with NCI-H226 lung worked out at 49.9 µM; in the experiment on SNB-75 CNS it was 60.9 µM.
